Experimental data: US8541468B2, “Ophthalmic composition for treating tear dysfunction” (Ophtecs Corporation, priority 2003, dated 2013)

Columns and labels:
Format in all cases: in vivo
[1] = tested on: rat dry eye models; assay: Observation of dry spot areas in the tear film of rat dry eye models; details: four times a day for 5 days, dry environment
Source text: Air was blown against rats in a low humidity environment as described below to prepare rat dry eye models. An effect of sodium D-3-hydroxybutyrate (hereinafter abbreviated as “HBA.Na”) which is an active ingredient in the present invention, i.e., its effect of improving the stability of tear film, was examined by use of the prepared rat dry eye models. That is, observation of dry spot areas in the tear film of the rats and measurement of BUT of the tear film were made. […]
After passage of two hours from the last application of the eye drops on the fifth day, a xylazine hydrochloride/ketamine hydrochloride mixed solution was injected (2 ml/kg) into the rats to anesthetize them. […] Dry spot areas had been observed for 5 minutes since the eye-opening by use of a dry eye observation device “DR-1” (product of KOWA CO., LTD.), and the observed images were recorded on a videotape. The observed images were analyzed by use of image analysis software “Scion Image (version 4.02β)” (product of Scion Corporation) to determine a dry spot area per unit area [dry spot area (pixel)/area of observed area on the cornea (pixel)]. From the area, a dry spot area per unit area of the cornea [dry spot area (mm^2)/area of observed area on the cornea (mm^2)] was calculated by use of a conversion formula (1 pixel=0.0000195 mm^2) and evaluated. […]

[2] = tested on: rat dry eye models; assay: Measurement of tear film breakup time (BUT) in rat dry eye models; details: eye drops of any concentration (40, 80 and 120 mmol/L HBA.Na), four times a day for 5 days, dry environment
Source text: Air was blown against rats in a low humidity environment as described below to prepare rat dry eye models. An effect of sodium D-3-hydroxybutyrate (hereinafter abbreviated as “HBA.Na”) which is an active ingredient in the present invention, i.e., its effect of improving the stability of tear film, was examined by use of the prepared rat dry eye models. That is, observation of dry spot areas in the tear film of the rats and measurement of BUT of the tear film were made.
As the animals to be examined, there were used female SD rats of 8 weeks old that had been conditioned in an animal room where they were kept under light for 12 hours and in the dark for 12 hours at a room temperature of 23±2° C. and a relative humidity of 60±10%. The rats were kept in the animal room for 4 days. […]
After passage of two hours from the last application of the eye drops on the fifth day, a xylazine hydrochloride/ketamine hydrochloride mixed solution was injected (2 ml/kg) into the rats to anesthetize them. After 1% fluorescein was added to the eyes of the rats and the rats were forced to blink a few times, BUT was measured. The above procedure was conducted for HBA.Na concentrations of 40, 80 and 120 mmol/L, and each of the HBA.Na concentrations was evaluated based on 8 eyes of 8 rats.

[3] = tested on: corneal epithelial cells of rat dry eye models; assay: SEM observation of corneal epithelial cells of rat dry eye models (proportion of dark cells, microvilli); details: 80 mmol/l HBA.Na applied for 5 days, dry environment
Procedure: By use of the rat dry eye models described in Example 1, the corneal epithelial cells of the rats after HBA.Na and PBS were applied were observed by a scanning electron microscope (hereinafter abbreviated as “SEM”).
Samples were prepared in the following manner. • (1) In accordance with the methods described (1), (2) and (4) of Example 1, after 80 mmol/l of HBA.Na and a PBS solution were applied for 5 days, the corneas of the rats were removed immediately and washed with a phosphate buffer (hereinafter abbreviated as “PB”). […]
The photographs taken by the above method were subjected to image analysis to calculate the proportion of the number of dark cells. In the analysis, 6 spots of a certain area were selected randomly from the photograph, the numbers of cells and dark cells within the areas were counted, and the ratio of the number of dark cells to the number of all cells was calculated. […]

Which “dry spot area per unit area of the cornea, compared with PBS” value ([1]; eye drop containing 80 mmol/l HBA.Na, p<0.05 vs PBS) does the source give for `C[C@@H](O)CC(=O)[O-].[Na+]` [HBA.Na, sodium D-3-hydroxybutyrate] here?
Its value is “significantly smaller dry spot area”.

And the “dry spot area per unit area of the cornea, compared with PBS” value ([1]; eye drop containing 120 mmol/l HBA.Na, tendency only)?
Its value is “the dry spot area also became smaller”.

And the “tear film breakup time (BUT), compared with PBS” value [2]?
Its value is “BUT extended more significantly”.

And the “state of the microvilli/microvillus of the corneal epithelial cells” value ([3]; SEM)?
The value was “retained in a normal state and/or restored to the normal state”.

What about the “proportion of dark cells in corneal epithelial cells, compared with PBS” value ([3]; SEM image analysis) of the same compound?
The value was “significantly lower proportion of dark cells”.
